# Measurements from ChEMBL document CHEMBL6178021, “Optimization of Tambjamines Active against Multiple Stages of Malaria Parasites” (J Med Chem, 2025).
# How the values were obtained:
# Plasmodium falciparum [1] = assay: Antiplasmodial activity against asexual blood-stage Plasmodium falciparum Tm90-C2B using 2% haematocrit and 0.2% parasitemia assessed as reduction in fluorescence measured after 72 hrs by Malaria SYBR Green I-based Fluorescence (MSF) assay; type: functional, organism-based
# MDR1 (human) [2] = assay: Apparent permeability across basolateral to apical side in MDCK transfected with human MDR1 cells incubated for 1 hr by LC-MS analysis; conditions: dog, MDCK-MDR1
# [3] = Metabolic stability in mouse liver microsomes assessed as half life measured up to 60 mins by LC/MS analysis; type: ADME, Microsome
# [4] = Solubility of the compound in potassium phosphate buffer at pH 7.4 by UV-vis spectroscopy; conditions: buffer
# Plasmodium yoelii [5] = assay: Antimalarial activity against erythrocytic Plasmodium yoelii MRA-428 infected in CF1 mouse assessed as reduction in parasitemia at 25 mg/kg, po once daily for 4 days measured on day 5; type: functional; design: scale not given: the % may be the effect or the level left; conditions: time 4 day
# Plasmodium yoelii [6] = assay: Antimalarial activity against erythrocytic Plasmodium yoelii MRA-428 infected in CF1 mouse assessed as reduction in parasitemia at 80 mg/kg, po once daily for 4 days measured on day 5; type: functional; design: scale not given: the % may be the effect or the level left; conditions: time 4 day
# MDR1 (human) [7] = assay: Apparent permeability across apical to basolateral side in MDCK transfected with human MDR1 cells incubated for 1 hr by LC-MS analysis; conditions: dog, MDCK-MDR1
# [8] = Metabolic stability in human liver microsomes assessed as half life measured up to 60 mins by LC/MS analysis; type: ADME, Microsome
# Plasmodium yoelii [9] = assay: Antimalarial activity against erythrocytic Plasmodium yoelii MRA-428 infected in CF1 mouse assessed as reduction in parasitemia at 10 mg/kg, po once daily for 4 days measured on day 5; type: functional; design: scale not given: the % may be the effect or the level left; conditions: time 4 day
# Plasmodium yoelii [10] = assay: Antimalarial activity against erythrocytic Plasmodium yoelii MRA-428 infected in CF1 mouse assessed as cured mouse at 25 mg/kg, po once daily for 4 days measured on day 28 day; type: functional, organism-based; conditions: time 4.0 day
# Plasmodium yoelii [11] = assay: Antimalarial activity against erythrocytic Plasmodium yoelii MRA-428 infected in CF1 mouse assessed as reduction in parasitemia at 50 mg/kg, po once daily for 4 days measured on day 5; type: functional; design: scale not given: the % may be the effect or the level left; conditions: time 4 day
# in vitro [12] = conditions: human, liver microsomes
# Plasmodium yoelii [13] = assay: Antimalarial activity against erythrocytic Plasmodium yoelii MRA-428 infected in CF1 mouse assessed as cured mouse at 80 mg/kg, po once daily for 4 days measured on day 28 day; type: functional, organism-based; conditions: time 4.0 day
# Plasmodium falciparum [14] = assay: microbe, parasite or virus in culture; conditions: D6, 72 h
# Description: Antiplasmodial activity against asexual blood-stage Plasmodium falciparum D6 using 2% haematocrit and 0.2% parasitemia assessed as reduction in fluorescence measured after 72 hrs by Malaria SYBR Green I-based Fluorescence (MSF) assay
# HepG2 = assay: Cytotoxicity against human HepG2 cells assessed as cell viability measured after 48 hrs by MTT assay; type: toxicity, cell-based; conditions: hepg2
# in vitro [15] = conditions: mouse, liver microsomes
# Plasmodium falciparum [16] = assay: microbe, parasite or virus in culture; conditions: Dd2, 72 h
# Description: Antiplasmodial activity against asexual blood-stage Plasmodium falciparum Dd2 using 2% haematocrit and 0.2% parasitemia assessed as reduction in fluorescence measured after 72 hrs by Malaria SYBR Green I-based Fluorescence (MSF) assay
# Plasmodium yoelii [17] = assay: Antimalarial activity against erythrocytic Plasmodium yoelii MRA-428 infected in CF1 mouse assessed as cured mouse at 50 mg/kg, po once daily for 4 days measured on day 28 day; type: functional, organism-based; conditions: time 4.0 day
# in vitro [18] = conditions: human
# Description: Selectivity index, ratio of IC50 for cytotoxicity against human HepG2 cells to IC50 for antiplasmodial activity against asexual blood-stage Plasmodium falciparum D6
# MDR1 (human) [19] = assay: Efflux ratio, ratio of apparent permeability across apical to basolateral side over basolateral to apical side in MDCK transfected with human MDR1 cells incubated for 1 hr by LC-MS analysis; conditions: dog
SMILES,IC50 (Plasmodium falciparum [1]) [nM],Papp B→A at 1 h (MDR1 (human) [2]) [×10⁻⁶ cm/s],half-life [3] [min],solubility [4] [µM],Activity (Plasmodium yoelii [5]) [%],Activity (Plasmodium yoelii [6]) [%],Papp A→B at 1 h (MDR1 (human) [7]) [×10⁻⁶ cm/s],half-life [8] [min],Activity (Plasmodium yoelii [9]) [%],Activity (Plasmodium yoelii [10]),Activity (Plasmodium yoelii [11]) [%],microsomal CLint at 1 h (in vitro [12]) [µL/min/mg],Activity (Plasmodium yoelii [13]),IC50 (Plasmodium falciparum [14]) [nM],IC50 (HepG2) [nM],microsomal CLint at 1 h (in vitro [15]) [µL/min/mg],IC50 (Plasmodium falciparum [16]) [nM],Activity (Plasmodium yoelii [17]),selectivity ratio (in vitro [18]),efflux ratio at 1 h (MDR1 (human) [19])
CCC1=C(CC)/C(=C/NC2CCCCC2)N=C1c1ccc(CC)[nH]1,7.09,0.091,> 60,31.3,100,100,0.002,> 60,98.9,Active; Two Mouse Cured Out Of Four,100,17,Active; Two Mouse Cured Out Of Four,9.03,5170,14.8,4.34,Not active; None Of The Mouse Cured Out Of Four Tested,,
CCC1=C(C)/C(=C/NC2CCCCCC2)N=C1c1ccc(CC)[nH]1,7.5,0.037,> 60,12.5,100,100,0.036,39.6,43.8,Not active; None Of The Mouse Cured Out Of Four Tested,100,35.1,Active; Four Mouse Cured Out Of Four,8.4,4230,22,10.8,Not active; None Of The Mouse Cured Out Of Four Tested,,
CCC1=C(C)/C(=C/NC2CCCCCCC2)N=C1c1ccc(C)[nH]1,4.59,0.04,> 60,19.9,100,100,0.063,45.4,96.5,Not active; None Of The Mouse Cured Out Of Four Tested,100,30.5,Active; Three Mouse Cured Out Of Four,6.59,3510,0.47,3.43,Not active; None Of The Mouse Cured Out Of Four Tested,,
CCC1=C(CC)/C(=C/N[C@H]2CC[C@H](C(F)(F)F)CC2)N=C1c1ccc[nH]1,169,0.6,53.6,314,100,,1.4,22.5,95.7,Not active; None Of The Mouse Cured Out Of Four Tested,100,61.6,,196,24500,25.9,111,Not active; None Of The Mouse Cured Out Of Four Tested,125,0.43
CCC1=C(C)/C(=C/NC2CCCCC2)N=C1c1ccc(CC)[nH]1,13.3,0.23,> 60,23,100,100,0.46,34.3,45.7,Not active; None Of The Mouse Cured Out Of Four Tested,100,40.4,Active; Four Mouse Cured Out Of Four,33.8,6010,13.1,14.9,Not active; None Of The Mouse Cured Out Of Four Tested,,
CCC1=C(C)/C(=C/NC23C[C@H]4C[C@@H](C2)C[C@@H](C3)C4)N=C1c1ccc(CC)[nH]1,0.844,0.027,> 60,3.95,100,,0.026,> 60,100,Not active; None Of The Mouse Cured Out Of Four Tested,100,,,0.909,2970,,0.348,Not active; None Of The Mouse Cured Out Of Four Tested,3270,1
